The values that follow are results of earlier work, collected in PMC5111365 (The Analyst, 2016).

The target of data set [1] is Abl-1 human recombinant protein (Homo sapiens, UniProt P00519). As to conditions: 12 nM kinase; data from previous work.
The conditions of data set [2]: 3 mg mL^-1 total protein, data from previous work.

No end group written: not given here. *: point of attachment. 5FAM = O=C1OC2(c3ccc(O)cc3Oc3cc(O)ccc32)c2ccc(C(=O)*)cc21

Abl-1 human recombinant protein, sequence (P00519 whole entry): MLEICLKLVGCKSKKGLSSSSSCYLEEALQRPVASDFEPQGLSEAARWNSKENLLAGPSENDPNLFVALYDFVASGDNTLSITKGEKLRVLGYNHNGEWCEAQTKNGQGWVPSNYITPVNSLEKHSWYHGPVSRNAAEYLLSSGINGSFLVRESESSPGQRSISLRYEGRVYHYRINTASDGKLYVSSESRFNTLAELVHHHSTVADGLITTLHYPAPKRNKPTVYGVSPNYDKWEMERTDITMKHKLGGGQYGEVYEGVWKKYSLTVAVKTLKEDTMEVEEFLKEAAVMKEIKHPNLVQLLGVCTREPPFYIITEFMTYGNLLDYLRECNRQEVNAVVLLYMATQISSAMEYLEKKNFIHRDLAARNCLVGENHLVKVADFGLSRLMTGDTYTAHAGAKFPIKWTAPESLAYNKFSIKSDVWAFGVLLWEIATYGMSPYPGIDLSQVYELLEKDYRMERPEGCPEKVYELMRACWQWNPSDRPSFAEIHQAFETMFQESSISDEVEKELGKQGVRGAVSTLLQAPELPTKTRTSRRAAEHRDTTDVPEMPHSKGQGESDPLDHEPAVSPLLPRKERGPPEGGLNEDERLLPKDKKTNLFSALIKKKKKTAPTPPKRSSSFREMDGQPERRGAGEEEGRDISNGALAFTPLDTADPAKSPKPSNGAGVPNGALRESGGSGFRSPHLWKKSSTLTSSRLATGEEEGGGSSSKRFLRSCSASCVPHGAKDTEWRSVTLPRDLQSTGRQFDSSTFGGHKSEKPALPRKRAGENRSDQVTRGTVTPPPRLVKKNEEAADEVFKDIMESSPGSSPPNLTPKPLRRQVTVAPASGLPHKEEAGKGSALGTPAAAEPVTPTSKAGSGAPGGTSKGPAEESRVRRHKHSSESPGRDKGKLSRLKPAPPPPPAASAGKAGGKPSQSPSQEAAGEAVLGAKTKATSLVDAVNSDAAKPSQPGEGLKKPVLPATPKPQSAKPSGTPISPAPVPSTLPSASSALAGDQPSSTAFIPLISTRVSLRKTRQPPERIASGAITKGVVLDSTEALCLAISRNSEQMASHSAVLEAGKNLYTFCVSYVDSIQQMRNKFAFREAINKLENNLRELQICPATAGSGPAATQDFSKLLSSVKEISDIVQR

As for 5FAM-GGAYAAPFKKKA [III-67B], the “t50% P, time required for 50% of the peptide to be phosphorylated by Abl-1 kinase” value in data set [1] is 190 min. For the same substance, in data set [2], the “t1/2, time at which 50% of the peptide was degraded in the cytosolic lysate” value is 1.3 min.
